Patent publication US5681738A, “Use of 10-oxo-trans-8-decenoic acid in mushroom cultivation” (The Penn State Research Foundation, priority 1992, dated 1997)

Legend:
[1] = Solubility; type: physicochemical
[2] = test system: separated stipes of Agaricus bisporus; test: Elongation of upper stipes of separated stipes (upper and lower portions) on test agar containing ODA, 3-day storage at 12° C.; design: species or system Agaricus bisporus (hybrid off-white); conditions: for % Elongation of upper stipes, Mean: control 14.4
Procedure: Four type strains of mushrooms were used: the white, off-white, hybrid white (U3) and hybrid off-white (U1). Mushrooms from each flush were harvested before the veil was broken. Freshly harvested mushrooms were transported within about one hour after harvest to Borland Laboratory and placed in the pilot plant cold room (4° C.) for about two hours before sampling. Mushrooms were sorted on the basis of size and appearance. Diseased, damaged, misshapen, veil-opened and extremely large or small mushrooms (>40 or <25 mm in cap diameter) were discarded. Mushrooms of uniform size (25-40 mm) and maturity of the button stage (stage 1, veil intact tightly) were used in this research.
Whole stipes were cut at the lower portions to a length of 7-9 mm to standardize the sample, and marked at the middle of the veil, which is the location where the veil attaches to the stipe, to indicate the upper and lower stipes. The separated stipes contained 2-4 mm of upper stipes and 5-6 nun of lower stipes. For the study using separated upper stipes, mushrooms were dissected directly into upper stipes with a length of 3-5 mm. The separated stipes or upper stipes were put upside down on the test agar containing various mushroom supernatants or ODA concentrations; i.e., the upper sides in contact with the agar surface (FIG. 12). All petri dishes were covered and stored at 12° C. The length of separated stipes and upper stipes was measured using a vernier caliper before and after certain days of storage.
Sterile ODA solutions were aseptically added into the autoclaved agar solutions to achieve the desired final ODA concentrations. The agar solution was then dispensed into dishes, ca 20.8 mL per dish. The level of ODA tested included 10^-4, 10^-5, 10^-6, 10^-7, and 10^-8 M. Mushrooms (hybrid off-white) from 6 different crops were used to study their postharvest growth. In the first 2 experiments, mushroom stipes were measured after 4-day storage at 12° C. In order to prevent stipe deterioration and desiccation of the test agar, in the following experiments mushroom stipes were measured after 3-day storage at 12° C.
The experimental data were subjected to a single classification analysis of variance (AOV) for a completely randomized design (Steele et al., 1980). Fisher's protected least significant difference (LSD) was applied to separate the means. The level of significance used in this research was 0.05.
ODA stimulated the elongation of upper stipes in excess of the control, but the response occurred only when the lower portions were present. The additional elongation of upper stipes was stimulated by ODA at a concentration as low as 10^-8 M (0.00184 ppm).

[3] = Dissociation constant by titration with ethanolic NaOH; type: physicochemical; conditions: water; aqueous solution; Henderson-Hasselbalch; standard deviation 10^0.04; read-out: dissociation constant (Ka)
Procedure: The purity of ODA was then determined by titration with ethanolic NaOH. The molarity of NaOH was standardized by anhydrous oxalic acid which was dried overnight at 100° C. Three points in the titration curve, with the ratios of [A-] to [HA] equal to 1/3, 1/1 and 3/1, respectively, were chosen for the calculation of the dissociation constant (Ka) of ODA based on the Henderson-Hasselbalch equation (Mathews et al., (1990)): […]

Which solubility ([1]; acetone, chloroform, ethanol, ethyl ether, methanol, methylene chloride and water) does the source give for O=C/C=C/CCCCCCC(=O)O [ODA, 10-oxo-trans-8-decenoic acid] here?
Its solubility is “soluble”.

What about the solubility ([1]; non-polar solvents such as pentane, hexane, heptane and benzene) of the same compound?
Its solubility is “slightly soluble”.

And the minimal effective concentration ([2]; Agaricus bisporus, 72 h, 0.00184 ppm, separated stipes with lower portions, read-out: lowest concentration stimulating additional elongation of upper stipes)?
Its minimal effective concentration is 0.01 µM.

And the “% Elongation of upper stipes, Mean” value ([2]; ODA 10^-4 M (18.4 ppm))?
Its value is 30.0%.

And the “% Elongation of upper stipes” value ([2]; ODA 10^-4 M (18.4 ppm), rep 1, control 14.5)?
Its value is 25.1%.

And the “% Elongation of upper stipes” value ([2]; ODA 10^-4 M (18.4 ppm), rep 2, control 11.6)?
The value was 30.5%.

What about the “% Elongation of upper stipes” value ([2]; ODA 10^-4 M (18.4 ppm), rep 3, control 17.1) of the same compound?
The value was 34.2%.

And the “% Elongation of upper stipes, Mean” value ([2]; ODA 10^-5 M (1.84 ppm))?
Its value is 27.7%.

What about the “% Elongation of upper stipes” value ([2]; ODA 10^-5 M (1.84 ppm), rep 1, control 14.5) of the same compound?
Its value is 30.7%.

What about the “% Elongation of upper stipes” value ([2]; ODA 10^-5 M (1.84 ppm), rep 2, control 11.6) of the same compound?
Its value is 25.0%.

And the “% Elongation of upper stipes” value ([2]; ODA 10^-5 M (1.84 ppm), rep 3, control 17.1)?
The value was 27.4%.

What about the “% Elongation of upper stipes, Mean” value ([2]; ODA 10^-6 M (0.184 ppm)) of the same compound?
Its value is 29.5%.

What about the “% Elongation of upper stipes” value ([2]; ODA 10^-6 M (0.184 ppm), rep 1, control 14.5) of the same compound?
The value was 27.5%.

What about the “% Elongation of upper stipes” value ([2]; ODA 10^-6 M (0.184 ppm), rep 2, control 11.6) of the same compound?
Its value is 24.7%.

What about the “% Elongation of upper stipes” value ([2]; ODA 10^-6 M (0.184 ppm), rep 3, control 17.1) of the same compound?
The value was 36.2%.

And the “% Elongation of upper stipes, Mean” value ([2]; ODA 10^-7 M (0.0184 ppm))?
Its value is 30.9%.

And the “% Elongation of upper stipes” value ([2]; ODA 10^-7 M (0.0184 ppm), rep 1, control 14.5)?
Its value is 27.3%.

And the “% Elongation of upper stipes” value ([2]; ODA 10^-7 M (0.0184 ppm), rep 2, control 11.6)?
The value was 38.3%.

And the “% Elongation of upper stipes” value ([2]; ODA 10^-7 M (0.0184 ppm), rep 3, control 17.1)?
The value was 27.2%.

What about the “% Elongation of upper stipes, Mean” value ([2]; ODA 10^-8 M (0.00184 ppm)) of the same compound?
Its value is 30.5%.

What about the “% Elongation of upper stipes” value ([2]; ODA 10^-8 M (0.00184 ppm), rep 1, control 14.5) of the same compound?
The value was 23.7%.

What about the “% Elongation of upper stipes” value ([2]; ODA 10^-8 M (0.00184 ppm), rep 2, control 11.6) of the same compound?
Its value is 32.7%.

What about the “% Elongation of upper stipes” value ([2]; ODA 10^-8 M (0.00184 ppm), rep 3, control 17.1) of the same compound?
The value was 35.1%.

And the “effect on upper stipe elongation (in words)” value ([2]; all levels, only when lower portions present)?
Its value is “significant effect”.

What about the pKa [3] of the same compound?
The pKa was 4.68.
